We go through two substances from PMC9786170, “The Pharmacological Potential of Novel Melittin Variants from the Honeybee and Solitary Bees against Inflammation and Cancer” (Toxins, 2022).

“Also recorded” adds a separate entry of the source.

Type in all cases: cell-based, human
Series [1] has as its system HEK293T cells. In words: Cell viability assay (WST-8/Orangu formazan) in HEK293T cells. To be noted: 25 µg/mL, 24 h, WST-8 formazan absorbance, n = 4. On the procedure:
(§1) Figure 1 Toxicity characterization of cells treated with melittin peptides. (A,B) For the viability assay, RAW264.7 (A) or HEK293T (B) cells were treated with bee venom compounds in the indicated concentrations for 24 h. Cells were incubated with WST-8 and the formed formazan was detected by absorbance measurements. (C) For the proliferation assay, HMEC-1 cells were grown in low density and treated after 24 h with the indicated peptide (25 µg/mL) for 72 h. Cells were stained with crystal violet solution. The amount of DNA-bound crystal violet was detected by absorbance measurements. (D) The number of sub-diploidic cells was determined by staining with propidium iodide (PI) and quantified to assess apoptosis of HUVECs. Data are expressed as mean ± SEM. (A) n = 3, (B) n = 4, (C) n = 2–3, (D) n = 2. * p ≤ 0.05 versus control.
For assessing the cytotoxicity of all peptides, various cell types and assays were utilized. […] After incubation, absorbance was measured at a wavelength of 450 nm with a reference at 650 nm at an EnSpire 2300 Multimode Plate Reader (Perkin Elmer, Lübeck, Germany). To calculate cell viability, the absorbance of vehicle-treated cells was set to 100%, and the melittin derivates-treated samples were correlated to them.

Series [2] has as its system HMEC-1 cells. In words: Proliferation assay (crystal violet) in HMEC-1 cells. The following applies: HMEC-1, 25 µg/mL, 72 h, n = 2–3. On the procedure: as §1
HMECs (2000 cells/well) were seeded into collagen-coated 96-well plates and grown for 24 h. Then, they were treated with melittin peptides. […] Absorbance was measured at 590 nm using a plate reader (Infinite F200Pro, Tecan, Männedorf, Switzerland). The proliferation percentage was calculated by normalizing to the untreated control (24 h) and compared to the DMSO control (0.03%) of 72 h incubation. […]

Series [3] deals with HEK293T cells. Put plainly: Ca2+ induction assay (Fluo-8). To be noted: Fluo-8, 0.25, 2.5, 25 µg/mL, partly already at 2.5 µg/mL, n = 4. On the procedure:
Figure 2 Melittin derivates influence cellular Ca^2+ and IP1 levels. (A) For the Ca^2+ induction assay, Fluo-8 pretreated HEK293-T cells were incubated with melittin derivates in the indicated concentrations and the fluorescence was detected. (B) For the Ca^2+ inhibition assay, Fluo-8 pretreated HEK293-T cells were incubated with peptides in the indicated concentrations for 30 min, stimulated with 5 µM ionomycin, and the fluorescence was detected. (C) IP3 has a short lifetime and is rapidly degraded to IP1; therefore, IP1 was determined. For the IP1/IP3 induction assay (left panel), HEK293T cells were incubated with melittin peptides in the indicated concentration for 2 h, a detection reagent was added, and the fluorescence resonance energy transfer signal was detected. For the IP1/IP3 inhibition assay (right panel), HEK293T cells were incubated with melittin peptides in the indicated concentration for 30 min and stimulated with 20 µM ionomycin for 1.5 h. After the addition of the detection reagent, the fluorescence resonance energy transfer signal was detected. Data are expressed as mean ± SEM. (A, B, C (left)) n = 4, (C (right)) n = 3. * p ≤ 0.05 versus control.
For analysis, 5 × 10^4 HEK293 cells or 2 × 10^4 MDA-MB-231 cells were seeded in a 96-well poly-D-lysine plate, incubated at 37 °C for 24 h, and treated with 4 µM Fluo-8-AM in HBSS for 1 h at 37 °C. After 1 h, the Fluo-8/HBSS was replaced by 100 µL HBSS. Five images per second were taken using an ImageXpress Micro Confocal High Content Imaging System (Molecular Device, San Jose, CA, USA). Melittin peptides (0.25, 2.5, and 25 µg/mL), DMSO (negative control), or 5 µM ionomycin (Sigma Aldrich; Taufkirchen, Germany) (positive control) were added to the cells. For the next 20 s, an image was obtained every second. For the inhibition assay, the peptide-treated samples (30 min) were treated with 5 µM ionomycin and for the next 20 s, an image was obtained every second. The data were analyzed with the MetaXpress Software Version 6 (Molecular Devices, San Jose, CA, USA). A threshold of fluorescence intensity was defined using cells before treatment, and all cells with a fluorescence signal above the threshold level were counted. For the induction assay, the number of cells above the threshold in the toxin-treated samples were related to the cells in the DMSO-treated sample. For the inhibition assay, the number of cells above the threshold in the melittin-treated samples were related to the cells in the ionomycin-treated sample.

For series [4], the system named is MDA-MB-231 cells. Put plainly: Proliferation assay (crystal violet) in MDA-MB-231 cells. The following applies: n = 2; for anti-proliferative activity, 72 h: MDA-MB-231, 25 µg/mL, crystal violet. On the procedure:
Figure 5 Anti-proliferative and apoptotic effect of melittin derivates on the triple-negative breast cancer cell line MDA-MB-231. (A) For the proliferation assay, cells were grown in low density and were treated after 24 h with melittin peptides at a concentration of 25 µg/mL for 72 h. Cells were stained with crystal violet solution. The amount of DNA-bound crystal violet was detected by absorbance measurements. (B) Melt3, 4, and Xac4, which are non-toxic to healthy cells, were further used to test effects on proliferation at 24 h (left) and 48 h (right) at different concentrations. (C) The effects on apoptosis were detected by flow cytometry after 24 h (left), 48 h (middle), and 72 h (right) of treatment. The number of apoptotic cells was determined by staining with propidium iodide (PI). Data are expressed as mean ± SEM. n = 2, * p ≤ 0.05 versus control. Sts, staurosporin 1 µM.
HMECs (2000 cells/well) were seeded into collagen-coated 96-well plates and grown for 24 h. Then, they were treated with melittin peptides. Treated cells were cultured for 72 h, whereas untreated control cells, directly after 24 h, were fixed with a methanol-ethanol (2:1) solution and washed with PBS before they were stained using a crystal violet solution (20% methanol). Similarly, at the end of incubation time, cells treated with melittin peptides were fixed, stained, and unbound crystal violet was removed by washing with distilled water. Finally, cells were left to air dry, and DNA-bound crystal violet was dissolved using an acetic acid solution (20%, Sigma-Aldrich, Steinheim, Germany). Absorbance was measured at 590 nm using a plate reader (Infinite F200Pro, Tecan, Männedorf, Switzerland). The proliferation percentage was calculated by normalizing to the untreated control (24 h) and compared to the DMSO control (0.03%) of 72 h incubation. Similarly, MDA-MB-231 cells (6000 cells/well) were seeded into 96-well plates, and their proliferation ability under treatment conditions was tested as described above.

With melittin [Melt, reference compound], the “cytotoxicity (cell viability)” value in series [1] is recorded as “showed cytotoxicity”. In addition, the proliferation result in series [2] is “proliferation was hindered”. For the same substance, the “induction of Ca2+ release” value in series [3] is “induced a significant release of Ca^2+; also recorded: induce Ca^2+ release”. Besides, the “anti-proliferative activity, 72 h” value in series [4] was “exhibited anti-proliferative activity”.

On to xylopin [Xac4], for which the “cytotoxicity (cell viability)” value in series [1] was “showed cytotoxicity”. For the same substance, in series [2], the proliferation entry is listed as “proliferation was augmented”. Further, the “induction of Ca2+ release” value in series [3] is on record as “induce Ca^2+ release”. The “anti-proliferative activity, 72 h” value in series [4] is recorded as “exhibited anti-proliferative activity; also recorded: anti-proliferative effects on breast cancer cells”. For the same substance, the “proliferation at 24 h and 48 h, concentration range” value in series [4] (MDA-MB-231, 24 h and 48 h, different concentrations, Melt4 effect at 10 and 25 µg/mL) is “trend of decreased proliferation”.
